Measured values as given in article PMC8800111 (The Journal of Biological Chemistry, 2021).

Tests used:
Assay type in all cases: cell-based
[1] = biological target: proteins of U3A human fibrosarcoma cells (4462 proteins detected) (Homo sapiens, UniProt Q8IXQ4); conditions: protein GPALPP1, U3A cells
[2] = biological target: proteins of U3A human fibrosarcoma cells (4462 proteins detected) (Homo sapiens, UniProt Q03252); conditions: protein LMNB2; U3A cells
[3] = biological target: proteins of U3A human fibrosarcoma cells (4462 proteins detected) (Homo sapiens, UniProt P28799); conditions: protein GRN; U3A cells
[4] = biological target: proteins of U3A human fibrosarcoma cells (4462 proteins detected) (Homo sapiens, UniProt P62993); conditions: protein GRB2, U3A cells
[5] = biological target: proteins of U3A human fibrosarcoma cells (4462 proteins detected) (Homo sapiens, UniProt P49916); conditions: protein LIG3; U3A cells
[6] = biological target: proteins of U3A human fibrosarcoma cells (4462 proteins detected) (Homo sapiens, UniProt Q9UHL4); conditions: protein DPP7; U3A cells
[7] = biological target: proteins of U3A human fibrosarcoma cells (4462 proteins detected) (Homo sapiens, UniProt P56282); conditions: protein POLE2; U3A cells
[8] = biological target: proteins of U3A human fibrosarcoma cells (4462 proteins detected) (Homo sapiens, UniProt Q9HC44); conditions: protein GPBP1L1; soluble abundance after heat, U3A cells
[9] = biological target: proteins of U3A human fibrosarcoma cells (4462 proteins detected) (Homo sapiens, UniProt Q99459); conditions: protein CDC5L; U3A cells
Sequence of proteins of U3A human fibrosarcoma cells (4462 proteins detected) (Homo sapiens, UniProt Q99459) (Q99459 whole entry): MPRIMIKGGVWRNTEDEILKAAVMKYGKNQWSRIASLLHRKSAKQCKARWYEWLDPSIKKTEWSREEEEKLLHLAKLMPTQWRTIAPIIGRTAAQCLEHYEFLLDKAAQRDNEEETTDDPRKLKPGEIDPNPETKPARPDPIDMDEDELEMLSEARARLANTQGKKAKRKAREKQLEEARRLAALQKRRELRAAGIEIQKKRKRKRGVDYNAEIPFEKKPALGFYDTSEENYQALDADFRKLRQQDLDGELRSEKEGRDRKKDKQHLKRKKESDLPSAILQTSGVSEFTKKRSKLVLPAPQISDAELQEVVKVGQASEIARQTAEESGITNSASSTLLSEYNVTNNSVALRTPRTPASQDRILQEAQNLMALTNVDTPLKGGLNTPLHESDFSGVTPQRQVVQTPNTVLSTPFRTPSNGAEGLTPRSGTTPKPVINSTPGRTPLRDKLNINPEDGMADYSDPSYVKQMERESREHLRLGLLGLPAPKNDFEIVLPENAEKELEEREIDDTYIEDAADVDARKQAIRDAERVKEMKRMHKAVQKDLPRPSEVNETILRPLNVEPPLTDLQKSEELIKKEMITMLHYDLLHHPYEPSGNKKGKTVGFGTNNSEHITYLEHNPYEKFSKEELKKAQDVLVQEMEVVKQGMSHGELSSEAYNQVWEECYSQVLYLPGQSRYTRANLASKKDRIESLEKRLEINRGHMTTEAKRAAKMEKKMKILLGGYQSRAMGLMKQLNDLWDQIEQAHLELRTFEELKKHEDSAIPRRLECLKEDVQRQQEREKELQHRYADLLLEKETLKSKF

[10] = biological target: proteins of U3A human fibrosarcoma cells (4462 proteins detected) (Homo sapiens, UniProt P17706); conditions: protein PTPN2, U3A cells
[11] = biological target: proteins of U3A human fibrosarcoma cells (4462 proteins detected) (Homo sapiens, UniProt O00487); conditions: protein PSMD14; U3A cells
Sequence of proteins of U3A human fibrosarcoma cells (4462 proteins detected) (Homo sapiens, UniProt O00487) (O00487 whole entry): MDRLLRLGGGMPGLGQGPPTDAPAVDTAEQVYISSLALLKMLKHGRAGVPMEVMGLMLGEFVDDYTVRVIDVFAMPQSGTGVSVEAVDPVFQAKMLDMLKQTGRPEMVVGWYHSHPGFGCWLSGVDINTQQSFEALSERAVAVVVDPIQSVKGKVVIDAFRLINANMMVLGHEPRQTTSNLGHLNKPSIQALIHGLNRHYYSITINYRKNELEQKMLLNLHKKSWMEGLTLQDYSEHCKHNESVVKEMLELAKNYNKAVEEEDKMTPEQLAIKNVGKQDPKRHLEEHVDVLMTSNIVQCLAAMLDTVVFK

[12] = biological target: proteins of U3A human fibrosarcoma cells (4462 proteins detected) (Homo sapiens, UniProt Q8N5G2); conditions: protein TMEM57; U3A cells
Sequence of proteins of U3A human fibrosarcoma cells (4462 proteins detected) (Homo sapiens, UniProt Q8N5G2) (Q8N5G2 whole entry): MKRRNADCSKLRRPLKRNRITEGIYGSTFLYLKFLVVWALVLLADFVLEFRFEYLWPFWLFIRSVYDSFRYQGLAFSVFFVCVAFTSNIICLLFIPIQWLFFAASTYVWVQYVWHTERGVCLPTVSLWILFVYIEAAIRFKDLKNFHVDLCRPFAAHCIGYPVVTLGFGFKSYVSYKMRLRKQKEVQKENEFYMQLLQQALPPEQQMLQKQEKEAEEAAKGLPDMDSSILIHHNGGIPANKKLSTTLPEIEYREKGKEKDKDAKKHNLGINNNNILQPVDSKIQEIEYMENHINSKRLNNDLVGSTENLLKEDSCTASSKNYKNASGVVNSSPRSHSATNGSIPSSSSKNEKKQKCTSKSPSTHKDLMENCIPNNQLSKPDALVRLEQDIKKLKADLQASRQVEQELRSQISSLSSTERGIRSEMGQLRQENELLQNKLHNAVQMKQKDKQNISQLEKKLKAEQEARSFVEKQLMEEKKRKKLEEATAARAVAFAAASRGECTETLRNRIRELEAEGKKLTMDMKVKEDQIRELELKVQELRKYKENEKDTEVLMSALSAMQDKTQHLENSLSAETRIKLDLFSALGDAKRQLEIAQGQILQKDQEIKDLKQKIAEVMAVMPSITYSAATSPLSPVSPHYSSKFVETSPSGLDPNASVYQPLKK

[13] = biological target: proteins of U3A human fibrosarcoma cells (4462 proteins detected) (Homo sapiens, UniProt Q15468); conditions: protein STIL; U3A, 10 μM, 2 h
[14] = biological target: proteins of U3A human fibrosarcoma cells (4462 proteins detected) (Homo sapiens, UniProt P23921); conditions: protein RRM1; U3A, 10 μM, 2 h
[15] = biological target: proteins of U3A human fibrosarcoma cells (4462 proteins detected) (Homo sapiens, UniProt Q9UQ80); conditions: protein PA2G4, U3A cells
Sequence of proteins of U3A human fibrosarcoma cells (4462 proteins detected) (Homo sapiens, UniProt Q9UQ80) (Q9UQ80 whole entry): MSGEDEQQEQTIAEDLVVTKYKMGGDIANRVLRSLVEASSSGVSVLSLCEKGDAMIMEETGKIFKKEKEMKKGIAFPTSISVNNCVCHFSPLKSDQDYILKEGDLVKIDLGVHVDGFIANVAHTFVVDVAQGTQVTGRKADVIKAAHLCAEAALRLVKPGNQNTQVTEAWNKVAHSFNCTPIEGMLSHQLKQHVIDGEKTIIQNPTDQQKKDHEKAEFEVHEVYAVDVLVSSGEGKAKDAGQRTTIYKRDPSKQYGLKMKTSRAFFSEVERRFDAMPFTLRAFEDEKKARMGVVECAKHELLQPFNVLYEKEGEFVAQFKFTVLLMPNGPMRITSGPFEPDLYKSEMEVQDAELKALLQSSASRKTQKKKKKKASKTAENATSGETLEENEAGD

[16] = biological target: proteins of U3A human fibrosarcoma cells (4462 proteins detected) (Homo sapiens, UniProt Q9NXV2); conditions: protein KCTD5, U3A cells
[17] = biological target: proteins of U3A human fibrosarcoma cells (4462 proteins detected) (Homo sapiens, UniProt O75533); conditions: protein SF3B1; U3A cells
[18] = biological target: proteins of U3A human fibrosarcoma cells (4462 proteins detected) (Homo sapiens, UniProt Q15365); conditions: protein PCBP1; U3A cells
Sequence of proteins of U3A human fibrosarcoma cells (4462 proteins detected) (Homo sapiens, UniProt Q15365) (Q15365 whole entry): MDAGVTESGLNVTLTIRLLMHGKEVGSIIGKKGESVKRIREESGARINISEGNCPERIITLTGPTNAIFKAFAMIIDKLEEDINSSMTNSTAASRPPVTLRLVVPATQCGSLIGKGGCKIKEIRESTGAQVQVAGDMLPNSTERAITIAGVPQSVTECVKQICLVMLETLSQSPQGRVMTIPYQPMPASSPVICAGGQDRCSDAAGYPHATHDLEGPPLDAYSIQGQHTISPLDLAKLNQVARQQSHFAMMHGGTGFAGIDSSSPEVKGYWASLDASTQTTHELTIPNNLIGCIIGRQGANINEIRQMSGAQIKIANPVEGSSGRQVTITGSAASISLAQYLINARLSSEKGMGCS

[19] = biological target: proteins of U3A human fibrosarcoma cells (4462 proteins detected) (Homo sapiens, UniProt P05388); conditions: protein RPLP0; RPLP0P6; U3A cells
[20] = biological target: proteins of U3A human fibrosarcoma cells (4462 proteins detected) (Homo sapiens, UniProt P63173); conditions: protein RPL38; U3A cells
[21] = biological target: proteins of U3A human fibrosarcoma cells (4462 proteins detected) (Homo sapiens, UniProt Q86UA6); conditions: protein RPAIN, U3A cells
Sequence of proteins of U3A human fibrosarcoma cells (4462 proteins detected) (Homo sapiens, UniProt Q86UA6) (Q86UA6 whole entry): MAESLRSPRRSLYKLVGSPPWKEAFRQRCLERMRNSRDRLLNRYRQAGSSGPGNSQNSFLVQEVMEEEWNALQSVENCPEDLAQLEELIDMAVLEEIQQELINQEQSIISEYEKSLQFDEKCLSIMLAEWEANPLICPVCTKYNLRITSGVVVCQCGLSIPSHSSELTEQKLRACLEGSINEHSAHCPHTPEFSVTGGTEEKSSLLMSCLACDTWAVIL

[22] = biological target: proteins of U3A human fibrosarcoma cells (4462 proteins detected) (Homo sapiens, UniProt Q13185); conditions: protein CBX3, U3A cells
[23] = biological target: proteins of U3A human fibrosarcoma cells (4462 proteins detected) (Homo sapiens, UniProt O60749); conditions: protein SNX2; U3A cells
Sequence of proteins of U3A human fibrosarcoma cells (4462 proteins detected) (Homo sapiens, UniProt O60749) (O60749 whole entry): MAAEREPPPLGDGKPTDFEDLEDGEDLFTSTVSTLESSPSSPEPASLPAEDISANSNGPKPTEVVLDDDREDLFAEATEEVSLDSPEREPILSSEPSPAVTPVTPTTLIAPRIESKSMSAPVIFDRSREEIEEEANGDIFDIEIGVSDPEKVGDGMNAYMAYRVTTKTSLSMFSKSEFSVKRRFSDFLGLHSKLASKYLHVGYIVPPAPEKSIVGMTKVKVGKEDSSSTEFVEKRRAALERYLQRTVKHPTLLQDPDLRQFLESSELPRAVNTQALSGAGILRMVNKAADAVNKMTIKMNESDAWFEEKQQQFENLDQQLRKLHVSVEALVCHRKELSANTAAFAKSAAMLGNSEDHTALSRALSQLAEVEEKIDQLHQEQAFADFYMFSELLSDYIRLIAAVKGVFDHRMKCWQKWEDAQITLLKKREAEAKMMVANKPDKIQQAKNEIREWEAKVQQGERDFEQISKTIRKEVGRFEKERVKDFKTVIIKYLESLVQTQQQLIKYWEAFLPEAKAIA

[24] = biological target: proteins of U3A human fibrosarcoma cells (4462 proteins detected) (Homo sapiens, UniProt Q8IYB5); conditions: protein SMAP1; soluble abundance after heat, U3A cells
[25] = biological target: proteins of U3A human fibrosarcoma cells (4462 proteins detected) (Homo sapiens, UniProt Q75QN2); conditions: protein INTS8; U3A cells
[26] = biological target: proteins of U3A human fibrosarcoma cells (4462 proteins detected) (Homo sapiens, UniProt Q9NZ52); conditions: protein GGA3; soluble abundance after heat, U3A cells
Sequence of proteins of U3A human fibrosarcoma cells (4462 proteins detected) (Homo sapiens, UniProt Q9NZ52) (Q9NZ52 whole entry): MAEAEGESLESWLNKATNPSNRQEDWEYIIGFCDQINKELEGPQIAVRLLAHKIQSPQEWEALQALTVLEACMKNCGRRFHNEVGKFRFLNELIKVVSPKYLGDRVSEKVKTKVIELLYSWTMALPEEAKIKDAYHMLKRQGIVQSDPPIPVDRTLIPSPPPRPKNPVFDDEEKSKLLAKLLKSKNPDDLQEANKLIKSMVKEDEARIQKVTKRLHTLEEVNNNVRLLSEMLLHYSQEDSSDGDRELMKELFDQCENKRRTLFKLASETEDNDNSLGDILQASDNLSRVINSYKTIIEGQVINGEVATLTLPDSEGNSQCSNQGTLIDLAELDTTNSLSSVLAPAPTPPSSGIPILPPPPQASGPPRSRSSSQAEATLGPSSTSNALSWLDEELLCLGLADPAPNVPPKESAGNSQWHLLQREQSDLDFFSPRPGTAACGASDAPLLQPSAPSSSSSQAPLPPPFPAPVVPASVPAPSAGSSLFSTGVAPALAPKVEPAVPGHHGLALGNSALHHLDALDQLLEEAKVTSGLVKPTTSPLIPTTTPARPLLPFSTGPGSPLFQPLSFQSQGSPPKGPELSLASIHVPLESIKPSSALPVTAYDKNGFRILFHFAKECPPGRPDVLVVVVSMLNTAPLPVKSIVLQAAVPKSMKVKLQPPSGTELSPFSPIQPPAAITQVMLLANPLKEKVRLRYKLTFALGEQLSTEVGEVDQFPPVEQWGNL

[27] = biological target: proteins of U3A human fibrosarcoma cells (4462 proteins detected) (Homo sapiens, UniProt Q9BRA2); conditions: protein TXNDC17, U3A cells
Sequence of proteins of U3A human fibrosarcoma cells (4462 proteins detected) (Homo sapiens, UniProt Q9BRA2) (Q9BRA2 whole entry): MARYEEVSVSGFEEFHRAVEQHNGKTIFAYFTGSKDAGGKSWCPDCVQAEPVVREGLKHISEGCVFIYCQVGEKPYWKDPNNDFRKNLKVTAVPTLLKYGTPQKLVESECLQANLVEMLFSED

[28] = biological target: proteins of U3A human fibrosarcoma cells (4462 proteins detected) (Homo sapiens, UniProt Q12979); conditions: protein ABR; U3A cells
Sequence of proteins of U3A human fibrosarcoma cells (4462 proteins detected) (Homo sapiens, UniProt Q12979) (Q12979 whole entry): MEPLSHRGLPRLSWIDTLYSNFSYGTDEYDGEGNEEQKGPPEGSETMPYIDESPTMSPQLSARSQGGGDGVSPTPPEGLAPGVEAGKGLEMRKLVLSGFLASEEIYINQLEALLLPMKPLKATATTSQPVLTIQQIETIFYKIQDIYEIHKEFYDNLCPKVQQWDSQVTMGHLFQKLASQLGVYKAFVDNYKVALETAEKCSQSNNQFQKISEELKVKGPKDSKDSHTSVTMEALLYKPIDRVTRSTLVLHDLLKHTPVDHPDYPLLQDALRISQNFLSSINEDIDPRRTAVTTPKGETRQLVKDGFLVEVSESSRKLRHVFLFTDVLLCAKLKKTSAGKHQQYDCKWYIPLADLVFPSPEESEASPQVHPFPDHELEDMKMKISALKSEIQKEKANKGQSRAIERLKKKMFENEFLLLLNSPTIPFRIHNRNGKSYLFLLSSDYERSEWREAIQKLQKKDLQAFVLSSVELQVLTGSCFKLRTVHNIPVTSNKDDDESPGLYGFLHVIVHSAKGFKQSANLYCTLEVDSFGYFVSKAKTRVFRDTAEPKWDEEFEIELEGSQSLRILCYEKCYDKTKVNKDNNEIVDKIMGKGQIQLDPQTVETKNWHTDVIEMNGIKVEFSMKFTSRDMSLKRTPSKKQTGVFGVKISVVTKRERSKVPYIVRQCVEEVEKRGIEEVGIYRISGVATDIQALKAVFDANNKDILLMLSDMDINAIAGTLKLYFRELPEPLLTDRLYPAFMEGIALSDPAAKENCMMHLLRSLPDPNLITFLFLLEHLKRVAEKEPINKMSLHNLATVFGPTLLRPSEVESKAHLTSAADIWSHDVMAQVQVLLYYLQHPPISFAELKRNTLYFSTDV

[29] = biological target: proteins of U3A human fibrosarcoma cells (4462 proteins detected) (Homo sapiens, UniProt O76021); conditions: protein RSL1D1; soluble abundance after heat, U3A cells
[30] = biological target: proteins of U3A human fibrosarcoma cells (4462 proteins detected) (Homo sapiens, UniProt Q9ULU4); conditions: protein ZMYND8; U3A cells

SMILES: CCc1nc(N)nc(N)c1-c1ccc(Cl)cc1 [pyrimethamine]
- Log2 (PYR/DMSO) [1]: -0.04
- Log2 (PYR/DMSO) [2]: 0.19
- Log2 (PYR/DMSO) [3]: 0.21
- Log2 (PYR/DMSO) [4]: -0.04
- Log2 (PYR/DMSO) [5]: 0.16
- Log2 (PYR/DMSO) [6]: 0.22
- Log2 (PYR/DMSO) [7]: 0.19
- Log2 (PYR/DMSO) [8]: 0.14
- Log2 (PYR/DMSO) [9]: 0.18
- Log2 (PYR/DMSO) [10]: -0.04
- Log2 (PYR/DMSO) [11]: 0.17
- Log2 (PYR/DMSO) [12]: 0.17
- Log2 (PYR/DMSO), STIL [13]: 0.35
- Log2 (PYR/DMSO), RRM1 [14]: 0.24
- Log2 (PYR/DMSO) [15]: -0.03
- Log2 (PYR/DMSO) [16]: -0.04
- Log2 (PYR/DMSO) [17]: 0.16
- Log2 (PYR/DMSO) [18]: 0.18
- Log2 (PYR/DMSO) [19]: 0.23
- Log2 (PYR/DMSO) [20]: 0.18
- Log2 (PYR/DMSO) [21]: -0.04
- Log2 (PYR/DMSO) [22]: -0.05
- Log2 (PYR/DMSO) [23]: 0.17
- Log2 (PYR/DMSO) [24]: 0.15
- Log2 (PYR/DMSO) [25]: 0.18
- Log2 (PYR/DMSO) [26]: 0.14
- Log2 (PYR/DMSO) [27]: -0.05
- Log2 (PYR/DMSO) [28]: 0.18
- Log2 (PYR/DMSO) [29]: 0.14
- Log2 (PYR/DMSO) [30]: 0.16
